Reference: US20230416688A1, “CHEMICAL CULTURE SYSTEM AND USE THEREOF” (IREGENE THERAPEUTICS LTD, priority 2020, published 2023)

Key:
[1] = test system: human neural cell line ReNcell VM; test: Cyquant cell viability assay, neural cell line, compound concentration screening; type: cell-based; conditions: only this component's concentration changed
Procedure: 6-well culture plates were coated with 50 μg/mL polylysine (SIGMA, P6407) and incubated for more than 3 h at 37° C. in a thermostat after plate laying; then further coated with 5 μg/mL Laminin (I2020, SIGMAALDRICH) and incubated for more than 3 h at 37° C. in a thermostat after plate laying. Mouse primary cells and the human neural cell line ReNcell VM were cultured, where mouse primary cell isolation was performed according to the method described in Nature Protocols. Volume 7, pages 1741-1754 (2012). Cell culture conditions were 37° C., 5% carbon dioxide (Panasonic, MCO-18AC), and cell adherent culture. The culture medium of the present invention, Neuralbasal+I0% FBS and N2B27 culture medium were used for comparison, respectively. Cell passage was digested with 0.05% trypsin/EDTA at 37° C. for 5 min, and the cell digestion was terminated with DMEM+10% FBS. […]
(§1) The Cyquant assay is used for quantitative detection of cell viability to compare the effects of different medium components on the physiological state of cells during long-term cell culture. […] Samples were taken on day 1, day 5, day 15 and day 30, and cell viability assays were performed using CyQuant Kit (Invitrogen, X12223) and operated according to the instruction manual, and using SpectraMax i3 Multi-Mode Microplate Reader (VWR, model ID3-STD) for data reading. […]

induced cortical neurons = test: Cyquant cell viability assay during induction of cortical neurons; type: cell-based, human; conditions: FIG. 6n; cortical neuron induction
Procedure: For cortical neuron differentiation, 6-well culture plates were coated with 50 μg/mL poly-Lysine (SIGMA, P6407) and incubated for more than 3 h in a 37° C. incubator after plate laying; then further coated with 3 μg/mL laminin (Laminin, 12020, SIGMAALDRICH) and incubated for more than 3 h at 37° C. after plate laying. The induced nerve stem cells obtained in Example 3 was re-inoculated into T25 culture plates at a rate of 1×105 per vial. Neural stem cells were cultured using NouvNeu culture medium at 37° C. and 5% CO2 (Panasonic, MCO-18AC), and the medium was replaced with fresh medium every three days until neurons formation on day 30. In the control experiment, N2B27 medium was used for neuron induction, and the specific operation steps were the same as above.
as §1, with “10,” for “5,”, “35,” for “30,”, “i3Multi-Mode” for “i3 Multi-Mode”, “Model” for “model”

Row | Compound | use range of concentration in the medium (Cyquant) ([1]; FIG. 2b) [µg/mL] | use range of concentration in the medium (Cyquant) (induced cortical neurons) [µg/mL] | use range of concentration in the medium (Cyquant) ([1]; FIG. 2d) [µg/mL]
1 | O=C[C@H](O)[C@@H](O)[C@@H](O)[C@H](O)CO [D(+)-galactose] | 5 to 25 | 5 to 25 | 
2 | recombinant human transferrin: recombinant human transferrin, component of the NouvNeu medium |  |  | 0.05 to 0.2
